Experimental data taken from patent US8383853B2, “Method for preparing 2,6-diethyl-4-methylphenylacetic acid” (Bayer Cropscience AG, priority 2004, dated 2013).

How the values were obtained:
Format in all cases: in vivo
Veronica [1] = assay: Herbicidal post-emergence action; conditions: greenhouse, 80 g of a.i./ha
Experimental: (§1) Seeds of monocotyledonous and dicotyledonous weed and crop plants are placed into sandy loam in wood fiber pots, covered with soil and cultivated in a greenhouse under good growth conditions. Two-three weeks after sowing, the test plants are treated at the one-leaf stage. The test compounds, formulated as wettable powders (WP), are then, in various dosages with a water application rate of 600 l/ha (converted), with 0.2% of wetting agent added, sprayed onto the green parts of the plants. After the test plants have been kept in the greenhouse under optimum growth conditions for about 3 weeks, the effect of the preparations is rated visually in comparison to untreated controls (herbicidal effect in percent (%): 100% effect=the plants have died, 0% effect=like control plants).

Alopecurus [2] = assay: Herbicidal post-emergence action; conditions: greenhouse, 80 g of a.i./ha
Experimental: as §1

Setaria viridis [3] = assay: Herbicidal post-emergence action; conditions: greenhouse, 80 g of a.i./ha
Experimental: as §1

Lolium multiflorum [4] = assay: Herbicidal post-emergence action; conditions: greenhouse, 80 g of a.i./ha
Experimental: as §1

Echinochloa crus-galli = assay: Herbicidal post-emergence action; conditions: greenhouse, 80 g of a.i./ha
Experimental: as §1

Alopecurus [5] = assay: Herbicidal pre-emergence action; conditions: greenhouse
Description: (§2) Seeds of monocotyledonous and dicotyledonous weed and crop plants are placed in sandy loam in wood fiber pots and covered with soil. The test compounds, formulated in the form of wettable powders (WP), are then, as an aqueous suspension with a water application rate of 600 l/ha (converted), with 0.2% of wetting agent added, applied to the surface of the covering soil in various dosages.
(§3) After the treatment, the pots are placed in a greenhouse and kept under good growth conditions for the test plants. The visual assessment of the emergence damage on the test plants is carried out after a trial period of 3 weeks by comparison with untreated controls (herbicidal effect in percent (%): 100% effect=the plants have died, 0% effect=like control plants).

Echinochloa = assay: Herbicidal pre-emergence action; conditions: greenhouse, 80 g of a.i./ha
Description: as §2, §3

Setaria viridis [6] = assay: Herbicidal pre-emergence action; conditions: greenhouse
Description: as §2, §3

Lolium multiflorum [7] = assay: Herbicidal pre-emergence action; conditions: greenhouse
Description: as §2, §3

Summer barley = assay: Container trials with cereal, post-emergence, without or with safener; conditions: crop damage
Experimental: (§4) Seeds of monocotyledonous and dicotyledonous weed and crop plants are placed into sandy loam in wood fiber pots or in plastic pots, covered with soil and cultivated in a greenhouse, during the vegetation period also outdoors outside of the greenhouse, under good growth conditions. Two-three weeks after sowing, the test plants are treated at the one- to three-leaf stage. The test compounds, formulated as wettable powders (WP) or liquid (EC) are, in various dosages with a water application rate of […] (converted), with wetting agent (0.2 to 0.3%) added, sprayed onto the plants and the surface of the soil. Three-four weeks after the treatment of the test plants, the effect of the preparations is rated visually in comparison to untreated controls (herbicidal effect in percent (%): 100% effect=the plants have died, 0% effect=like control plants).
(§5) If it is additionally to be tested as to whether safeners can improve the plant compatibility of test substances in the case of crop plants, the following options are used for applying the safener: • seeds of the crop plants are, before sowing, dressed with the safener substance (the amount of safener stated in percent, based on the weight of the seed) • before the application of the test substances, the crop plants are sprayed with the safener at a certain application rate per hectare (usually 1 day before the application of the test substances) • the safener is applied together with the test substance as a tank mix (the amount of safener is stated in g/ha or as a ratio, based on the herbicide).
(§6) By comparing the effect of the test substances on crop plants without or with safener treatment, it is possible to assess the effect of the safener substance.

Summer wheat = assay: as above; conditions: crop damage, 28 days after application
Experimental: as §4, §5, §6

Avena fatua [8] = assay: Herbicidal post-emergence action; conditions: greenhouse, 80 g of a.i./ha
Experimental: as §1

Veronica [9] = assay: Herbicidal pre-emergence action; conditions: greenhouse, 320 g of a.i./ha
Description: as §2, §3

Avena fatua [10] = assay: Herbicidal pre-emergence action; conditions: greenhouse
Description: as §2, §3

Meloidogyne incognita = assay: Meloidogyne test (spray treatment); conditions: 20 ppm of a.i., after 14 d
Experimental: To produce a suitable preparation of active compound, 1 part by weight of active compound is mixed with the stated amounts of solvent, and the concentrate is diluted with water to the desired concentration.
Vessels are filled with sand, solution of active compound, Meloidogyne incognita egg/larva suspension and lettuce seeds. The lettuce seeds germinate and the plants develop. On the roots, galls are formed.
After the desired period of time, the nematicidal activity is determined in % by the formation of galls. 100% means that no galls have been found; 0% means that the number of galls on the treated plants corresponds to that of the untreated control.

[11] = greenhouse, post-emergence, 12.5 g of a.i./ha
[12] = greenhouse, post-emergence, 25 g of a.i./ha

CCOC(=O)OC1=C(c2c(CC)cc(C)cc2CC)C(=O)NC12CCC(OC)CC2 (single isomer, unassigned) [I-c-2]
herbicidal effect, Veronica (Veronica [1]): 80% | herbicidal effect, Alopecurus (Alopecurus [2]): 100% | herbicidal effect, Setaria (Setaria viridis [3]): 100% | herbicidal effect, Lolium (Lolium multiflorum [4]): 100% | herbicidal effect, Echinochloa (Echinochloa crus-galli): 100% | herbicidal effect, Alopecurus (Alopecurus [5]; 80 g of a.i./ha): 90% | herbicidal effect, Echinochloa (Echinochloa): 100% | herbicidal effect, Setaria (Setaria viridis [6]; 80 g of a.i./ha): 90% | herbicidal effect, Lolium (Lolium multiflorum [7]; 80 g of a.i./ha): 100%

CCc1cc(C)cc(CC)c1C1=C(O)C2(CCC(OC)CC2)NC1=O (stereo not shown) [I-a-1]
Summer barley observed (%) (Summer barley; [11]): 20% | Summer barley observed (%) (Summer barley; [12]): 60% | Summer barley observed (%) (Summer barley; greenhouse, post-emergence, 50 g of a.i./ha): 93%

CCOCC(=O)OC1=C(c2c(CC)cc(C)cc2CC)C(=O)NC12CCC(OC)CC2 (single isomer, unassigned) [I-b-2]
Summer wheat observed (%) (Summer wheat; 12.5 g of a.i./ha): 95% | herbicidal effect, Veronica (Veronica [1]): 70% | herbicidal effect, Alopecurus (Alopecurus [2]): 100% | herbicidal effect, Setaria (Setaria viridis [3]): 100% | herbicidal effect, Lolium (Lolium multiflorum [4]): 100% | herbicidal effect, Avena fatua (Avena fatua [8]): 100% | herbicidal effect, Veronica (Veronica [9]): 100% | herbicidal effect, Alopecurus (Alopecurus [5]; 320 g of a.i./ha): 100% | herbicidal effect, Setaria (Setaria viridis [6]; 320 g of a.i./ha): 100% | herbicidal effect, Lolium (Lolium multiflorum [7]; 320 g of a.i./ha): 100% | herbicidal effect, Avena fatua (Avena fatua [10]; 320 g of a.i./ha): 90% | nematicidal activity in % by the formation of galls (Meloidogyne incognita): ≥ 70%

CCOC1CCC2(CC1)NC(=O)C(c1c(CC)cc(C)cc1CC)=C2O (single isomer, unassigned) [I-a-2]
Summer wheat observed (%) (Summer wheat; 12.5 g of a.i./ha): 40% | Summer wheat observed (%) (Summer wheat; 25 g of a.i./ha): 80% | Summer barley observed (%) (Summer barley; 28 days after application, 25 g of a.i./ha): 25% | Summer barley observed (%) (Summer barley; 28 days after application, 50 g of a.i./ha): 50%

C=CCOC(=O)OC1=C(c2c(CC)cc(C)cc2CC)C(=O)NC12CCC(OC)CC2 (stereo not shown) [I-c-1]
Summer barley observed (%) (Summer barley; [11]): 35% | Summer barley observed (%) (Summer barley; [12]): 60% | herbicidal effect, Alopecurus (Alopecurus [2]): 100% | herbicidal effect, Setaria (Setaria viridis [3]): 100% | herbicidal effect, Lolium (Lolium multiflorum [4]): 100% | herbicidal effect, Avena fatua (Avena fatua [8]): 90% | herbicidal effect, Echinochloa (Echinochloa crus-galli): 100% | herbicidal effect, Alopecurus (Alopecurus [5]; 80 g of a.i./ha): 100% | herbicidal effect, Echinochloa (Echinochloa): 100% | herbicidal effect, Setaria (Setaria viridis [6]; 80 g of a.i./ha): 100% | herbicidal effect, Lolium (Lolium multiflorum [7]; 80 g of a.i./ha): 100% | herbicidal effect, Avena fatua (Avena fatua [10]; 80 g of a.i./ha): 60%

CCc1cc(C)cc(CC)c1C1=C(OC(=O)COC)C2(CCC(OC)CC2)NC1=O (stereo not shown) [I-b-1]
Summer wheat observed (%) (Summer wheat; 25 g of a.i./ha): 90% | herbicidal effect, Veronica (Veronica [1]): 80% | herbicidal effect, Alopecurus (Alopecurus [2]): 100% | herbicidal effect, Setaria (Setaria viridis [3]): 100% | herbicidal effect, Lolium (Lolium multiflorum [4]): 100% | herbicidal effect, Avena fatua (Avena fatua [8]): 100%
